Reference: patent US20070219159A1, “CYCLODEXTRIN COMPOSITIONS AND METHODS OF TREATING VIRAL INFECTIONS” (priority 2002, published 2007)
Where two headings read alike, the source gives them in different places.

Experiments:
HCV = test: In vitro anti-HCV assay in HCV RNA-replicating cell line AVA5; format: cell-based
Procedure: The antiviral activity of test compounds were assayed in the stably HCV RNA-replicating cell line. AVA5, derived by transfection of the human hepatoblastoma cell line, Huh^7 (Blight et al., 2000). Experimental drugs were added to dividing cultures once daily for three days. Media was changed with each addition of compound. Cultures generally started the assays at 50% confluence and reached confluence during the last day of treatment. HCV RNA and cellular β-actin RNA levels were assessed 24 hours after the last dose of compound using dot blot hybridization. Assays were conducted using a single dose of test compound (in triplicate cultures).
Both HCV and β-actin RNA levels in the treated cultures were expressed as a percentage of the mean levels of RNA detected in untreated cultures. β-actin RNA levels were used both as a measure of toxicity, and to normalize the amount of cellular RNA in each sample. A level of 30% or less HCV RNA (relative to control cultures) was considered to be a positive antiviral effect, and a level of 50% or less β-actin RNA (relative to control cultures) is considered to be a cytotoxic effect.
Dividing cultures of AVAB cells were treated once daily for three days (media was changed with each addition of compound) with 4 concentrations of test compounds (3 cultures per concentration). A total of 6 untreated control cultures, and triplicate cultures treated with 10, 3, and 1 IU/ml α-interferon (active antiviral with no cytotoxicity), and 100, 10, and 1 μM ribavir ([…]) served as controls. HCV RNA and cellular β-actin FNA levels were assessed 24 hours after the last dose of compound using dot blot hybridization. β-actin RNA levels were used to normalize the amount of cellular RNA in each sample.
Toxicity analyses were performed on separate plates from those used for the antiviral assays. Cells for the toxicity analyses were cultured and treated with test compounds with the same schedule and under identical culture conditions used for the antiviral evaluations. Each compound was tested at 4 concentrations, each in triplicate cultures. Uptake of neutral red dye was used to determine the relative level of toxicity 24 hours following the last treatment. The absorbance of internalized dye at […] (A510) was used for the quantitative analysis. Values in test cultures were compared to 9 cultures of untreated cells maintained on the same plate as the test cultures.
Assays similar to those described above were conducted.

West Nile = test: In vitro antiviral screening (Table 1), West Nile
HSV-1 = details: in general 1000-fold less drug than Examples 1-6 and 10
HSV-2 = details: in general 1000-fold less drug than Examples 1-6 and 10
HSV-1 strain KOS1.1 = format: cell-based
[1] = tested on: dlsptk (an ACV-resistant, tk deletion mutant of HSV-1); format: cell-based; details: MOI 10, 20 μM (4.5 μg/ml) ACV or 6.4 mg/ml β-CD for 24 hours
Vero cells = test: Cell viability by LDH release assay; format: cell-based; details: acyclovir 400 μg/ml, 24 and 48 hours, Vero cells
Procedure: FIG. 3 depicts the effects of ACV alone (400 μg/ml) and β-CD alone (8 mg/ml) on the viability of Vero cells as monitored by the LDH release assay after 24 hours of treatments (A); and after 48 hours of treatments (B). All data represents means+SD of two separate experiments.
Cell viability assay. Cell viability was determined fluorometrically by estimating the release of LDH into the media (Moran and Schnellman, 1996). LDH activity was based on the reduction of pyruvate to lactate. The concomitant oxidation of NADH results in a decrease in the fluorescence emission at 450 nm with excitation wavelength 355 nm, and the rate of disappearance of NADH is indicative of LDH activity.
To study the effects of formulations on viability of preformed monolayers, 3 to 4×10^6 Vero cells were added to 1× MEM-5% FBS in T75 flasks. […] Used media were replaced with 15 ml of treatment media, containing 5× MEM-FBS diluted to 1× with water (control), acyclovir stock (400 μg/ml), or β-CD stock (8 mg/ml in water). […]
Reaction solution was made fresh for each experiment by mixing 0.4 ml of 16.2 mM pyruvate with 10 ml of 0.2 mM NADH in phosphate buffer (pH 7.5). […] The amount of LDH calculated for either condition was then compared with and expressed as a percentage of the total LDH present.
Used media were replaced with 15 ml/flask or 2.5 ml/well of treatment media, containing 5× MEM-FBS diluted to 1× with water (control), and […]CD stock. […] Live cells are distinguished by the presence of intracellular esterase activity, as determined by the enzymatic conversion of calcein-AM (nonfluorescent) to calcein (green fluorescence). EthD-1 enters cells with damaged cell membranes and binds to nucleic acids producing red fluorescence to identify dead cells. […] For LDH assays, cells were trypsinized, resuspended in fresh 1× medium, kept at 37° C.-5% CO2 atmosphere, and total LDH present in cells and medium was determined after lysing the cells with 350 μM digitonin. The amount of LDH calculated for either condition was then compared with and expressed as a percentage of the total LDH present. […]

Compound	S.I. for HCV (HCV)	SI = CC50/EC50 (West Nile)	SI = CC50/EC50 (Rhino)	SI = CC50/EC50 (HHV-7)	SI = CC50/EC50 (Flu B)	SI = CC50/EC50 (Punta Toro)	SI = CC50/EC50 (Pichinde)	SI = CC50/EC50 (VEE)	SI = CC50/EC50 (HHV-6)	SI = CC50/EC50 (Yellow fever)	SI = CC50/EC50 (MV)	SI = CC50/EC50 (Measles)	SI = CC50/EC50 (HCMV)	SI = CC50/EC50 (Vaccinia)	SI = CC50/EC50 (HRV)	SI = CC50/EC50 (HSV-1)	SI = CC50/EC50 (Resp syncytial)	SI = CC50/EC50 (Cowpox)	SI = CC50/EC50 (Ad)	SI = CC50/EC50 (Flu A)	further results
hydroxypropyl γ-cyclodextrin [HPGCD]	1.39	0																			SI = CC50/EC50, value in parenthesis calculated by DNA hybridization (EBV; DNA hybridization): 6.2
OC[C@H]1O[C@@H]2O[C@H]3[C@H](O)[C@@H](O)[C@@H](O[C@H]4[C@H](O)[C@@H](O)[C@@H](O[C@H]5[C@H](O)[C@@H](O)[C@@H](O[C@H]6[C@H](O)[C@@H](O)[C@@H](O[C@H]7[C@H](O)[C@@H](O)[C@@H](O[C@H]8[C@H](O)[C@@H](O)[C@@H](O[C@H]9[C@H](O)[C@@H](O)[C@@H](O[C@H]1[C@H](O)[C@H]2O)O[C@@H]9CO)O[C@@H]8CO)O[C@@H]7CO)O[C@@H]6CO)O[C@@H]5CO)O[C@@H]4CO)O[C@@H]3CO [GCD, γ-cyclodextrin]	1.04	0	0	0	0	0	0	0	0	0	0	0	0	0	0	0	0	0	0	0	SI = CC50/EC50 (EBV): 0; SI = CC50/EC50 (RSV): 0; SI = CC50/EC50 (HSV-2): 0; SI = CC50/EC50 (VZV): 0; SI = CC50/EC50 (MCMV): 0; SI = CC50/EC50 (PIV): 0
α-interferon																					approximate EC90 (HCV; positive antiviral control, no cytotoxicity): ~10 IU/ml
Nc1nc2c(ncn2COCCO)c(=O)[nH]1 [ACV, acyclovir, reference compound]																					reduction of KOS1.1 yield at 24 hours (HSV-1 strain KOS1.1; 4.5 μg/ml ACV, MOI 10, post-infection treatment): 10^2 fold; yield of cell-free and cell-associated virus (HSV-1 strain KOS1.1; 24 hours post-infection, MOI 50, BCD 7.2 mg/ml, ACV 400 μg/ml or both, pre, during and post infection treatment (FIG. 1)): markedly decreased; effect on yield of acyclovir-sensitive HSV KOS1.1 (FIG. 2) (HSV-1 strain KOS1.1; MOI 10, 20 μM ACV or 6.4 mg/ml β-CD for 24 hours): able to lower the yield; effect on yield of acyclovir-resistant dlsptk virus (FIG. 2) [1]: no activity; effect on yield of acyclovir-resistant dlsptk virus (FIG. 2) ([1]; listed as acyclovir): not of the acyclovir -resistant mutant; drug-related cell killing (Vero cells): no drug-related cell killing
CC(O)COC[C@H]1O[C@@H]2O[C@H]3[C@H](O)[C@@H](O)[C@@H](O[C@H]4[C@H](O)[C@@H](O)[C@@H](O[C@H]5[C@H](O)[C@@H](O)[C@@H](O[C@H]6[C@H](O)[C@@H](O)[C@@H](O[C@H]7[C@H](O)[C@@H](O)[C@@H](O[C@H]8[C@H](O)[C@@H](O)[C@@H](O[C@H]1[C@H](O)[C@H]2O)O[C@@H]8COCC(C)O)O[C@@H]7COCC(C)O)O[C@@H]6COCC(C)O)O[C@@H]5COCC(C)O)O[C@@H]4COCC(C)O)O[C@@H]3COCC(C)O (stereo partly drawn) [HPBCD, hydroxypropyl β-cyclodextrin]	1.26	0	0	0	0	0	0	0	0	0	0	0	0	0	0	0	0	0	0	0	SI = CC50/EC50 (RSV): 0; SI = CC50/EC50 (HSV-2): 0; SI = CC50/EC50 (VZV): 0; SI = CC50/EC50 (MCMV): 0; SI = CC50/EC50 (PIV): 0
hydroxypropyl α-cyclodextrin [HPACD]	0.97	0																			
